Measured values published in the kinase profiling compilation of Christmann-Franck et al. (2016).

Key:
Assay in all cases: KINOMEscan competition binding
Details in all cases: compound 10.0 µM
HIPK2 (human) = HIPK2 (human) (UniProt Q9H2X6)
HUNK (human) = HUNK (human) (UniProt P57058)
STK38 (human) = STK38 (human) (UniProt Q15208)
MAP3K15 (human) = MAP3K15 (human) (UniProt Q6ZN16)
ROCK1 (human) = ROCK1 (human) (UniProt Q13464)
TBK1 (human) = TBK1 (human) (UniProt Q9UHD2)
PLK2 (human) = PLK2 (human) (UniProt Q9NYY3)
GRK4 (human) = GRK4 (human) (UniProt P32298)
[1] = tested on: EGFR (human), P00533 [L861Q]
EPHB6 (human) = EPHB6 (human) (UniProt O15197)
MAP2K5 (human) = MAP2K5 (human) (UniProt Q13163)
MTOR (human) = MTOR (human) (UniProt P42345)
EIF2AK1 (human) = EIF2AK1 (human) (UniProt Q9BQI3)
NEK4 (human) = NEK4 (human) (UniProt P51957)
BTK (human) = BTK (human) (UniProt Q06187)
TAOK2 (human) = TAOK2 (human) (UniProt Q9UL54)
IRAK1 (human) = IRAK1 (human) (UniProt P51617)
IRAK4 (human) = IRAK4 (human) (UniProt Q9NWZ3)
VRK2 (human) = VRK2 (human) (UniProt Q86Y07)
GRK1 (human) = GRK1 (human) (UniProt Q15835)
SNRK (human) = SNRK (human) (UniProt Q9NRH2)
LRRK2 (human) = LRRK2 (human) (UniProt Q5S007)
Sequence of LRRK2 (human) (Q5S007 whole entry, looked up): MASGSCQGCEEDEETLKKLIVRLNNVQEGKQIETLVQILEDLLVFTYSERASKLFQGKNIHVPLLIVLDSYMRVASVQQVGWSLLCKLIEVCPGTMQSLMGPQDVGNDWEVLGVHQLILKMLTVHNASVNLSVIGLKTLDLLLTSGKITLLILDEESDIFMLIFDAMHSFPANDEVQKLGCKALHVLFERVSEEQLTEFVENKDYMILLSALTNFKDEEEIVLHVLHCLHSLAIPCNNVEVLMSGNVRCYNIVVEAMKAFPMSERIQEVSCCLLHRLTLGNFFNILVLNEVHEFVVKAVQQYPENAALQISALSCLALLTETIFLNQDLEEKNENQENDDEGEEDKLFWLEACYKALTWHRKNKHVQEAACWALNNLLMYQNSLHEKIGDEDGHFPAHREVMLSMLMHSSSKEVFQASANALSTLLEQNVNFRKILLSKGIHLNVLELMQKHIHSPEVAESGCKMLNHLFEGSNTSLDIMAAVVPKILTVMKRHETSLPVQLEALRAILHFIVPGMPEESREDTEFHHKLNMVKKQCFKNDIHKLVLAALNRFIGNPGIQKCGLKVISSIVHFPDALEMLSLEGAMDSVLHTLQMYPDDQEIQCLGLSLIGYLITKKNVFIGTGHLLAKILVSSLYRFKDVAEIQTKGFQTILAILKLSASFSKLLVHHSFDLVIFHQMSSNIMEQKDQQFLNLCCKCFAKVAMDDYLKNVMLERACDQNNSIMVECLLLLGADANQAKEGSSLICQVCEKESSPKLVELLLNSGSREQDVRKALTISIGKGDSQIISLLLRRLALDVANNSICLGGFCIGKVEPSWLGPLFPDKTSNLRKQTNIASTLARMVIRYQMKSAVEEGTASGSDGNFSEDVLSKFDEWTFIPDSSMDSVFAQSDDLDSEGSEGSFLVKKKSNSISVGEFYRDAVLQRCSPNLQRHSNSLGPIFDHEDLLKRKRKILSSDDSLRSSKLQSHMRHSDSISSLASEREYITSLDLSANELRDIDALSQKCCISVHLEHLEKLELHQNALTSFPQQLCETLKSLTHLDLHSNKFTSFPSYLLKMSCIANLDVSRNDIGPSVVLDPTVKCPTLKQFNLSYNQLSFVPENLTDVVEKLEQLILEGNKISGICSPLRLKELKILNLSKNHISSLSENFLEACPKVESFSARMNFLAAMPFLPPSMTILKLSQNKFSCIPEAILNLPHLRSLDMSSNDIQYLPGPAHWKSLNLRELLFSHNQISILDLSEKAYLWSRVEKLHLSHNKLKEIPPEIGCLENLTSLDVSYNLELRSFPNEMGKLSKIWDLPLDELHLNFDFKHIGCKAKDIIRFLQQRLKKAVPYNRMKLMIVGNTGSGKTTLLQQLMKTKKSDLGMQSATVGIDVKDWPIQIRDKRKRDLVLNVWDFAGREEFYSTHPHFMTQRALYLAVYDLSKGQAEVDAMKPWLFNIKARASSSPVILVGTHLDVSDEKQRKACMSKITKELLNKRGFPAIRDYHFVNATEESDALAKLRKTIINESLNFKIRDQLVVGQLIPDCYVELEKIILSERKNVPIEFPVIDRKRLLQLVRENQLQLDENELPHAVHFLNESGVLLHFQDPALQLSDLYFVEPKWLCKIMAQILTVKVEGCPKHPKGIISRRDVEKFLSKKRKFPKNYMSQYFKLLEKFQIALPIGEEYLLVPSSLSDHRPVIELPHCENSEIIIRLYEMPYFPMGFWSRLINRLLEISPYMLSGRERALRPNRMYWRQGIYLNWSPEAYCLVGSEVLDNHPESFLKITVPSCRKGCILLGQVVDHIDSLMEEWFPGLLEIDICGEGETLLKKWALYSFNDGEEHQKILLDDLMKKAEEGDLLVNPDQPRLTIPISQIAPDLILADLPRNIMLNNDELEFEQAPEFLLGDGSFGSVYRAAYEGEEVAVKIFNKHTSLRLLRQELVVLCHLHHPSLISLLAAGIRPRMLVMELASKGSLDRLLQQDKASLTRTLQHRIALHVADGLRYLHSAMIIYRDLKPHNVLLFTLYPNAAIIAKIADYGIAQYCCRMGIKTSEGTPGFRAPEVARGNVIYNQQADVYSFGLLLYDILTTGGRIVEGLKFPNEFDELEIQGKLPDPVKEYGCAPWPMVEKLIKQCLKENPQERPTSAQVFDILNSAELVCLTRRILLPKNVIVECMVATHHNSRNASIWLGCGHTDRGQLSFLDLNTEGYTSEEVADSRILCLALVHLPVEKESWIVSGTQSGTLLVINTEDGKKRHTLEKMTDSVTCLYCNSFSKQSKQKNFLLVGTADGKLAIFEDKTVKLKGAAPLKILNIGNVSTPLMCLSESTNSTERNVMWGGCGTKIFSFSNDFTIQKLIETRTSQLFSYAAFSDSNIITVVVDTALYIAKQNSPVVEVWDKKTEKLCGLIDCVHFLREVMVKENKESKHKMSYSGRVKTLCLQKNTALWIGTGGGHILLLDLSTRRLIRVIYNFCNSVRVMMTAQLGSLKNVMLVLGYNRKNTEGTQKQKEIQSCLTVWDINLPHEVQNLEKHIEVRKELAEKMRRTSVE

PKN3 (M.tuberculosis) = PKN3 (M.tuberculosis) (UniProt Q6P5Z2)
TRPM6 (human) = TRPM6 (human) (UniProt Q9BX84)
[2] = tested on: EGFR (human), P00533 [P753S; 747-752 del]
MAP3K1 (human) = MAP3K1 (human) (UniProt Q13233)
CASK (human) = CASK (human) (UniProt O14936)
[3] = tested on: PIK3CA (human), P42336 [I800L]
MAP3K2 (human) = MAP3K2 (human) (UniProt Q9Y2U5)
Sequence of MAP3K2 (human) (Q9Y2U5 whole entry, looked up): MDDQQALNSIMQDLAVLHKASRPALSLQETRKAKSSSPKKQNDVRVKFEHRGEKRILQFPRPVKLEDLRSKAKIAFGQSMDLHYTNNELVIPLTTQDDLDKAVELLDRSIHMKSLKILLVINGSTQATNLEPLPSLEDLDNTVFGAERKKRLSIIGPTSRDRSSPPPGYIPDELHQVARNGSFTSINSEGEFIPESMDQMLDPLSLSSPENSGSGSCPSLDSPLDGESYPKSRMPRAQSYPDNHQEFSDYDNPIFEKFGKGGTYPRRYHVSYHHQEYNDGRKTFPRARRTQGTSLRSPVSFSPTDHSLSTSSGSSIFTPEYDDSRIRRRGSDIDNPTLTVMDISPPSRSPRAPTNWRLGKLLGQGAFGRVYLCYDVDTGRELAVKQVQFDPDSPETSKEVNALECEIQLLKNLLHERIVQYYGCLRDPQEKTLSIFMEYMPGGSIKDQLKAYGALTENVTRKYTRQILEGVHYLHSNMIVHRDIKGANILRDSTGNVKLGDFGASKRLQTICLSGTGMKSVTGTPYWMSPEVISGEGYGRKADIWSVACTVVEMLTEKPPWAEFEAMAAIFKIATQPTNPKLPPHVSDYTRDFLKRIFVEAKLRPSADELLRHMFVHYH

PRPF4B (human) = PRPF4B (human) (UniProt Q13523)
MET (human) = MET (human) (UniProt P08581)
SIK3 (human) = SIK3 (human) (UniProt Q9Y2K2)
CDKL5 (human) = CDKL5 (human) (UniProt O76039)
CDK2 (human) = CDK2 (human) (UniProt P24941)
MATK (human) = MATK (human) (UniProt P42679)
[4] = tested on: PIK3CA (human), P42336 [E545A]
[5] = tested on: KIT (human), P10721 [V559D/T670I]
MYLK3 (human) = MYLK3 (human) (UniProt Q32MK0)
Sequence of MYLK3 (human) (Q32MK0 whole entry, looked up): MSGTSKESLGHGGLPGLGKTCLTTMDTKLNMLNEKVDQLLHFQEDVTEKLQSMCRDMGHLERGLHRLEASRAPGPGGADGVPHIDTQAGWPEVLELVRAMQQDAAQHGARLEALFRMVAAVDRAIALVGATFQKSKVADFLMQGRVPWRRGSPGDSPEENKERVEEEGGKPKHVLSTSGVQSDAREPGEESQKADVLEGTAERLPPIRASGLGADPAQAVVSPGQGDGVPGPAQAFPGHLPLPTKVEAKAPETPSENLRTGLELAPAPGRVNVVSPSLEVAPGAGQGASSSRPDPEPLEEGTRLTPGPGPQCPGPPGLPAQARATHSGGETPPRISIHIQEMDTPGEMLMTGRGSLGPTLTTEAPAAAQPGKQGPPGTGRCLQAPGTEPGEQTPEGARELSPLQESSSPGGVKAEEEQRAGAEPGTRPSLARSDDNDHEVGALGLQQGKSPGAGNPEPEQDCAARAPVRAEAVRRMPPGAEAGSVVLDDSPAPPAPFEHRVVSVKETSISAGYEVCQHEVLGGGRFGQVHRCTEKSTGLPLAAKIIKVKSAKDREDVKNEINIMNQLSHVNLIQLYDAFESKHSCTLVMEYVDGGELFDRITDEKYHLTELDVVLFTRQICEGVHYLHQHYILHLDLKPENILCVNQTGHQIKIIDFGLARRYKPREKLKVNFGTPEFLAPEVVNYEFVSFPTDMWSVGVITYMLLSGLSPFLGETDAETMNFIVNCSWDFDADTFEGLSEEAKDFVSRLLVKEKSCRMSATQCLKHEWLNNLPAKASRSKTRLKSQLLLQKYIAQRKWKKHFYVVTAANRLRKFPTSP

HIPK3 (human) = HIPK3 (human) (UniProt Q9H422)
NEK11 (human) = NEK11 (human) (UniProt Q8NG66)
Sequence of NEK11 (human) (Q8NG66 whole entry, looked up): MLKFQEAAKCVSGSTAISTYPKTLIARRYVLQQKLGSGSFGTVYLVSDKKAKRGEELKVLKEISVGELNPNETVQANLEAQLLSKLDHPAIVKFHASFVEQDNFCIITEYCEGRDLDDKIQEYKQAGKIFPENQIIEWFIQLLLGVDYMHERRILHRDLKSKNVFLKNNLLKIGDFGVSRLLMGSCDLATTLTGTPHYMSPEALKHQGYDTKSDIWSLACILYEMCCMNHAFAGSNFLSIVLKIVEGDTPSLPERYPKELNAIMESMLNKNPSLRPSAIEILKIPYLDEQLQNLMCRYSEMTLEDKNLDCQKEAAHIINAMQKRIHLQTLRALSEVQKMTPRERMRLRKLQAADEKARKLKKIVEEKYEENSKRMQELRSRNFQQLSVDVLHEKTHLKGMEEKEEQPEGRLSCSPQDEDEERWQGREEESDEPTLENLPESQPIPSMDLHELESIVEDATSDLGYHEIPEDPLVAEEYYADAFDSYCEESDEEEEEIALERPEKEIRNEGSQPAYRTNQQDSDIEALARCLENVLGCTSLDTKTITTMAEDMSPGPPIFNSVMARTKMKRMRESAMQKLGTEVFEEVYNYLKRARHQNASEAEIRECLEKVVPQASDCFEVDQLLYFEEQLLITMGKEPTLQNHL

Sequence of STK38 (human) (Q15208 whole entry, looked up): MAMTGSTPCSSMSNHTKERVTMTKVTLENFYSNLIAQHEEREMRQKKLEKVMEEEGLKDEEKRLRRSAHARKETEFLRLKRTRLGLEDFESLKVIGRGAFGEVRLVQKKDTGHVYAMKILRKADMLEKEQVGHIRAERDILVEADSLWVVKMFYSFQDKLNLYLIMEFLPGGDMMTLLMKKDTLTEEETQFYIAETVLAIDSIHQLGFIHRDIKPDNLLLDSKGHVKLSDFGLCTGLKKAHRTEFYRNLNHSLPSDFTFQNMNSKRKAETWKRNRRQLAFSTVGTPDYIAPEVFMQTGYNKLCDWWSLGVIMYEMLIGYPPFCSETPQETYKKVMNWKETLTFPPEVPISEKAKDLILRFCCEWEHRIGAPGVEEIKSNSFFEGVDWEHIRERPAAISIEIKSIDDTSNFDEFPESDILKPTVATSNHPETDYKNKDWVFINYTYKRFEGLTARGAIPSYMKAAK

Row | SMILES | kinase still bound, per cent of control (HIPK2 (human)) | kinase still bound, per cent of control (HUNK (human)) | kinase still bound, per cent of control (STK38 (human)) | kinase still bound, per cent of control (MAP3K15 (human)) | kinase still bound, per cent of control (ROCK1 (human)) | kinase still bound, per cent of control (TBK1 (human)) | kinase still bound, per cent of control (PLK2 (human)) | kinase still bound, per cent of control (GRK4 (human)) | kinase still bound, per cent of control [1] | kinase still bound, per cent of control (EPHB6 (human)) | kinase still bound, per cent of control (MAP2K5 (human)) | kinase still bound, per cent of control (MTOR (human)) | kinase still bound, per cent of control (EIF2AK1 (human)) | kinase still bound, per cent of control (NEK4 (human)) | kinase still bound, per cent of control (BTK (human)) | kinase still bound, per cent of control (TAOK2 (human)) | kinase still bound, per cent of control (IRAK1 (human)) | kinase still bound, per cent of control (IRAK4 (human)) | kinase still bound, per cent of control (VRK2 (human)) | kinase still bound, per cent of control (GRK1 (human)) | also measured
1 | C=CC(=O)Nc1cc(NC(=O)c2ccc(C)c(NC(=O)c3ccno3)c2)cc(C(F)(F)F)c1 | 86% | 100% | 90% | 77% | 100% | 100% | 100% | 100% | 100% | 81% | 80% | 97% | 100% | 84% | 100% | 87% | 100% | 99% | 100% | 86% | kinase still bound, per cent of control (SNRK (human)): 100%; kinase still bound, per cent of control (LRRK2 (human)): 89%; kinase still bound, per cent of control (PKN3 (M.tuberculosis)): 75%; kinase still bound, per cent of control (TRPM6 (human)): 100%; kinase still bound, per cent of control [2]: 79%; kinase still bound, per cent of control (MAP3K1 (human)): 94%; kinase still bound, per cent of control (CASK (human)): 83%; kinase still bound, per cent of control [3]: 93%; kinase still bound, per cent of control (MAP3K2 (human)): 100%; kinase still bound, per cent of control (PRPF4B (human)): 100%; kinase still bound, per cent of control (MET (human)): 100%; kinase still bound, per cent of control (SIK3 (human)): 82%; kinase still bound, per cent of control (CDKL5 (human)): 100%; kinase still bound, per cent of control (CDK2 (human)): 100%; kinase still bound, per cent of control (MATK (human)): 100%; kinase still bound, per cent of control [4]: 86%; kinase still bound, per cent of control [5]: 77%; kinase still bound, per cent of control (MYLK3 (human)): 91%; kinase still bound, per cent of control (HIPK3 (human)): 100%; kinase still bound, per cent of control (NEK11 (human)): 100%
2 | O=C(NC1CC1)c1cccc(-c2ccc3c(NC(=O)C4CC4)n[nH]c3c2)c1 | 36% | 64% | 85% | 100% | 57% | 61% | 88% | 14% | 69% | 1.4% | 5% | 100% | 100% | 100% | 100% | 20% | 82% | 88% | 100% | 100% | kinase still bound, per cent of control (SNRK (human)): 100%; kinase still bound, per cent of control (LRRK2 (human)): 100%; kinase still bound, per cent of control (PKN3 (M.tuberculosis)): 15%; kinase still bound, per cent of control (TRPM6 (human)): 100%; kinase still bound, per cent of control [2]: 96%; kinase still bound, per cent of control (MAP3K1 (human)): 100%; kinase still bound, per cent of control (CASK (human)): 82%; kinase still bound, per cent of control [3]: 100%; kinase still bound, per cent of control (MAP3K2 (human)): 63%; kinase still bound, per cent of control (PRPF4B (human)): 53%; kinase still bound, per cent of control (MET (human)): 75%; kinase still bound, per cent of control (SIK3 (human)): 100%; kinase still bound, per cent of control (CDKL5 (human)): 42%; kinase still bound, per cent of control (CDK2 (human)): 3.4%; kinase still bound, per cent of control (MATK (human)): 68%; kinase still bound, per cent of control [4]: 93%; kinase still bound, per cent of control [5]: 43%; kinase still bound, per cent of control (MYLK3 (human)): 46%; kinase still bound, per cent of control (HIPK3 (human)): 62%; kinase still bound, per cent of control (NEK11 (human)): 95%
